Test results from US10316057B2, “Tandem facial amphiphiles” (WISCONSIN ALUMNI RESEARCH FOUNDATION, priority 2011, dated 2019).
Structures can show the parent of a compound that is named as a salt. Blank lines part the entries; values can stand above or below the molecule they belong to.

Key:
[1] = Hydrodynamic radii of micelles by dynamic light scattering (DLS); format: physicochemical; details: 0.5 wt % amphiphile in water, 25° C.; mean ± SD, n = 3
Protocol: (§1) TFA-0 forms a hydrogel at concentrations >0.4 wt %, and this compound was not studied further. The other three TFAs are soluble to 5-10 wt % in aqueous media. Critical micelle concentrations (CMC) were determined by monitoring solubilization of a hydrophobic fluorescent dye, […] (Chattopadhyay et al., Anal. Biochem. 1984, 139, 408-412), and the hydrodynamic radii (Rh) of the micelles were determined via dynamic light scattering (DLS). Table 1 compares the data for TFAs with those for DDM, a conventional detergent that is very widely used for MP applications; DDM and the TFAs share maltose as their hydrophilic moieties. CMC values of the three TFAs are smaller than that of DDM, whether CMC is measured in units of mM or wt %.
Each TFA and DDM was dissolved in distilled, deionized (DI) water to obtain 1 mL of a solution containing 0.5 wt % amphiphile. Each solution was filtered through a 0.02 μm filter for DLS measurements. A 100-mW, 532-nm laser (Compass 315M-100, Coherent, Santa Clara, Calif.) illuminated a temperature-controlled glass cell at 25° C. that was filled with a refractive-index matching fluid (decahydronaphthalene, Fisher Scientific, Pittsburgh, Pa.). The scattered light was collected at an angle of 90° for about 30 minutes. Rh values were determined using the integrated dynamics software that analyzes the time scale of the scattered light intensity fluctuations by an autocorrelation function. The autocorrelation functions (ACFs) were obtained using a BI-9000AT digital autocorrelator (Brookhaven Instruments, Holtsville, N.Y.). Measurements were repeated three times.

[2] = Critical micelle concentration by solubilization of a hydrophobic fluorescent dye; format: physicochemical
From the text: The “Critical Micelle Concentration” (CMC) refers to the concentration of a detergent (e.g., an amphiphile as described herein) in an aqueous solution at which the detergent molecules self-assemble into micelles. Below the CMC, detergents are mostly monomeric; above the CMC, micelle concentration increases linearly with detergent concentration. The CMC is dependent upon many factors and is detergent-specific. The CMC of a detergent can be determined experimentally by measuring the solubilization of a water-insoluble dye or fluorophore while varying the concentration of detergent. A CMC may also be determined by measuring the diminution of the surface tension of an aqueous solution as a function of detergent concentration (CMCs determined by either method correlate with each other). The CMC is determined by extrapolating the plot of solubilization vs. concentration (or surface tension vs. concentration) in the two linear regions above and below the CMC. Where the two lines intersect is the CMC. The CMC can also be determined by the method of Nugebauer, J. M. (1990), Methods in Enzymology, 182:239-253.
as §1
(§2) Analysis of these TFAs for their CMC values provided the data in Table 3.

[3] = test system: leucine transporter (LeuT WT); assay: LeuT functionality assay ([3H]-Leu binding by scintillation proximity assay); set-up: species or system Aquifex aeolicus; details: higher amphiphile concentration, CMC+0.2 wt %, room temperature
From the text: The wild type of bacterial leucine transporter (LeuT WT) was examined because the functional state of this membrane protein is readily assessed by using a scintillation proximity assay (SPA) (Quick et al., Proc. Natl. Acad. Sci. USA 2007, 104, 3603-3608) to monitor binding of radiolabelled leucine. LeuT was initially extracted with DDM and then diluted with amphiphile-containing solutions to generate final TFA concentrations of 0.04 wt % or 0.2 wt % (residual DDM=0.005 wt %). Control samples had 0.05 wt % or 0.2 wt % DDM (overall, the final concentrations were CMC+0.04 wt % or CMC+0.2 wt %).
The wild type of the leucine transporter (LeuT WT) from Aquifex aeolicus was expressed in Escherichia coli essentially as described by Deckert et al. (Nature 392, 353-358 (1998)). The pET16b-LeuT WT-8His plasmid was kindly provided by Dr. Eric Gouaux, Vollum Institute, Portland Oreg. LeuT WT was extracted from isolated bacterial membranes solubilized with 1% DDM, bound to Ni^2+-affinity Chelating Sepharose Fast Flow resin (GE Healthcare, USA), and eluted in buffer consisted of 20 mM Tris-HCl (pH 8.0), 1 mM NaCl, 199 mM KCl, 0.05% DDM and 300 mM imidazole. […] After incubation at room temperature, at the indicated time points, samples were centrifuged and the protein concentration was determined by absorbance measurements at 280 nm. Concomitantly, [^3H]-Leu binding was determined using scintillation proximity assay (SPA) (Quick and Javitch, Proc. Natl. Acad. Sci. USA 104, 3603-3608 (2007)), with the reaction mixture consisted of 5 μL from the respective samples, 33.3 nM [^3H]-Leu (PerkinElmer, USA) and copper chelate (His-Tag) YSi beads (GE Healthcare). […] Normalized results are expressed as mean±SEM (n=2), as illustrated in FIG. 11 (long-term solubility of LeuT WT incubated in the presence of TFA-1, TFA-3, and DDM at (a) CMC+0.04 wt % or (b) CMC+0.2 wt % at room temperature).

[4] = Water solubility and hydrogel formation; format: physicochemical
Protocol: as §1
Several amphiphiles (TFA 1a-10a) were prepared and evaluated for their water solubility and critical micelle concentration (CMC). […] Examples of these TFAs include compounds of Formula VI: […]
These TFAs can be used to prepare hydrogels, which can be used tissue engineering or drug delivery applications. Examples of the generally water-insoluble TFAs include compounds of Formula XX: […]
as §2

CMC ([2]; Example 4, Table 3): 0.013 mM
CMC (wt. %) ([2]; Example 4, Table 3): 0.0028 wt. %
SMILES: CCN(CCCN(CC)C(=O)CCC(C)C1CCC2C3CCC4CC(OC5OC(CO)C(OC6OC(CO)C(O)C(O)C6O)C(O)C5O)CCC4(C)C3CC(OC3OC(CO)C(OC4OC(CO)C(O)C(O)C4O)C(O)C3O)C12C)C(=O)CCC(C)C1CCC2C3CCC4CC(OC5OC(CO)C(OC6OC(CO)C(O)C(O)C6O)C(O)C5O)CCC4(C)C3CC(OC3OC(CO)C(OC4OC(CO)C(O)C(O)C4O)C(O)C3O)C12C (centres unmarked) [TFA-7a]

CMC ([2]; Example 4, Table 3): 0.01 mM
CMC (wt. %) ([2]; Example 4, Table 3): 0.0022 wt. %
SMILES: CCCCN(CCCN(CCCC)C(=O)CCC(C)C1CCC2C3CCC4CC(OC5OC(CO)C(OC6OC(CO)C(O)C(O)C6O)C(O)C5O)CCC4(C)C3CC(OC3OC(CO)C(OC4OC(CO)C(O)C(O)C4O)C(O)C3O)C12C)C(=O)CCC(C)C1CCC2C3CCC4CC(OC5OC(CO)C(OC6OC(CO)C(O)C(O)C6O)C(O)C5O)CCC4(C)C3CC(OC3OC(CO)C(OC4OC(CO)C(O)C(O)C4O)C(O)C3O)C12C (centres unmarked) [TFA-9a]

CMC ([2]; Example 4, Table 3): 0.004 mM
CMC (wt. %) ([2]; Example 4, Table 3): 0.0009 wt. %
SMILES: CCCCCN(CCCN(CCCCC)C(=O)CCC(C)C1CCC2C3CCC4CC(OC5OC(CO)C(OC6OC(CO)C(O)C(O)C6O)C(O)C5O)CCC4(C)C3CC(OC3OC(CO)C(OC4OC(CO)C(O)C(O)C4O)C(O)C3O)C12C)C(=O)CCC(C)C1CCC2C3CCC4CC(OC5OC(CO)C(OC6OC(CO)C(O)C(O)C6O)C(O)C5O)CCC4(C)C3CC(OC3OC(CO)C(OC4OC(CO)C(O)C(O)C4O)C(O)C3O)C12C (centres unmarked) [TFA-10a]

water solubility ([4]; Example 4, under the conditions evaluated): insoluble
SMILES: CC(CCC(=O)NCc1ccc(CNC(=O)CCC(C)C2CCC3C4CCC5CC(OC6OC(CO)C(OC7OC(CO)C(O)C(O)C7O)C(O)C6O)CCC5(C)C4CC(OC4OC(CO)C(OC5OC(CO)C(O)C(O)C5O)C(O)C4O)C23C)cc1)C1CCC2C3CCC4CC(OC5OC(CO)C(OC6OC(CO)C(O)C(O)C6O)C(O)C5O)CCC4(C)C3CC(OC3OC(CO)C(OC4OC(CO)C(O)C(O)C4O)C(O)C3O)C12C (centres unmarked) [TFA-6a]

Continued, molecule first:

SMILES: CCN(CCCN(CC)C(=O)CC[C@@H](C)[C@H]1CC[C@H]2[C@@H]3CC[C@@H]4C[C@H](O[C@@H]5O[C@H](CO)[C@@H](O[C@H]6O[C@H](CO)[C@@H](O)[C@H](O)[C@H]6O)[C@H](O)[C@H]5O)CC[C@]4(C)[C@H]3C[C@H](O[C@@H]3O[C@H](CO)[C@@H](O[C@H]4O[C@H](CO)[C@@H](O)[C@H](O)[C@H]4O)[C@H](O)[C@H]3O)[C@]12C)C(=O)CC[C@@H](C)[C@H]1CC[C@H]2[C@@H]3CC[C@@H]4C[C@H](O[C@@H]5O[C@H](CO)[C@@H](O[C@H]6O[C@H](CO)[C@@H](O)[C@H](O)[C@H]6O)[C@H](O)[C@H]5O)CC[C@]4(C)[C@H]3C[C@H](O[C@@H]3O[C@H](CO)[C@@H](O[C@H]4O[C@H](CO)[C@@H](O)[C@H](O)[C@H]4O)[C@H](O)[C@H]3O)[C@]12C [TFA-2]
Rh (nm), hydrodynamic radius of micelles measured by dynamic light scattering [1]: 2.0 ± 0.03 nm
CMC ([2]; mean ± SD, n = 3): 0.013 ± 0.0018 mM
CMC (wt %) ([2]; mean ± SD, n = 3): 0.0028 ± 0.00039 wt %

SMILES: CCCCN(CCCN(CCCC)C(=O)CC[C@@H](C)[C@H]1CC[C@H]2[C@@H]3CC[C@@H]4C[C@H](O[C@@H]5O[C@H](CO)[C@@H](O[C@H]6O[C@H](CO)[C@@H](O)[C@H](O)[C@H]6O)[C@H](O)[C@H]5O)CC[C@]4(C)[C@H]3C[C@H](O[C@@H]3O[C@H](CO)[C@@H](O[C@H]4O[C@H](CO)[C@@H](O)[C@H](O)[C@H]4O)[C@H](O)[C@H]3O)[C@]12C)C(=O)CC[C@@H](C)[C@H]1CC[C@H]2[C@@H]3CC[C@@H]4C[C@H](O[C@@H]5O[C@H](CO)[C@@H](O[C@H]6O[C@H](CO)[C@@H](O)[C@H](O)[C@H]6O)[C@H](O)[C@H]5O)CC[C@]4(C)[C@H]3C[C@H](O[C@@H]3O[C@H](CO)[C@@H](O[C@H]4O[C@H](CO)[C@@H](O)[C@H](O)[C@H]4O)[C@H](O)[C@H]3O)[C@]12C [TFA-3]
Rh (nm), hydrodynamic radius of micelles measured by dynamic light scattering [1]: 3.3 ± 0.12 nm
maintaining LeuT WT function over 12 days [3]: matched DDM at the lower concentration
CMC ([2]; mean ± SD, n = 3): 0.007 ± 0.0023 mM
CMC (wt %) ([2]; mean ± SD, n = 3): 0.0016 ± 0.00051 wt %

SMILES: CC(CCC(=O)N(C)CCCN(C)C(=O)CCC(C)C1CCC2C3CCC4CC(OC5OC(CO)C(OC6OC(CO)C(O)C(O)C6O)C(O)C5O)CCC4(C)C3CC(OC3OC(CO)C(OC4OC(CO)C(O)C(O)C4O)C(O)C3O)C12C)C1CCC2C3CCC4CC(OC5OC(CO)C(OC6OC(CO)C(O)C(O)C6O)C(O)C5O)CCC4(C)C3CC(OC3OC(CO)C(OC4OC(CO)C(O)C(O)C4O)C(O)C3O)C12C (centres unmarked) [TFA-4a]
CMC ([2]; Example 4, Table 3): 0.014 mM
CMC (wt. %) ([2]; Example 4, Table 3): 0.0030 wt. %

SMILES: C[C@H](CCC(=O)NCCCNC(=O)CC[C@@H](C)[C@H]1CC[C@H]2[C@@H]3CC[C@@H]4C[C@H](O[C@@H]5O[C@H](CO)[C@@H](O[C@H]6O[C@H](CO)[C@@H](O)[C@H](O)[C@H]6O)[C@H](O)[C@H]5O)CC[C@]4(C)[C@H]3C[C@H](O[C@@H]3O[C@H](CO)[C@@H](O[C@H]4O[C@H](CO)[C@@H](O)[C@H](O)[C@H]4O)[C@H](O)[C@H]3O)[C@]12C)[C@H]1CC[C@H]2[C@@H]3CC[C@@H]4C[C@H](O[C@@H]5O[C@H](CO)[C@@H](O[C@H]6O[C@H](CO)[C@@H](O)[C@H](O)[C@H]6O)[C@H](O)[C@H]5O)CC[C@]4(C)[C@H]3C[C@H](O[C@@H]3O[C@H](CO)[C@@H](O[C@H]4O[C@H](CO)[C@@H](O)[C@H](O)[C@H]4O)[C@H](O)[C@H]3O)[C@]12C [TFA-0]
concentration at which a hydrogel forms ([4]; in water): > 0.4 wt %
